Literature values in US9757374B2, “Aripiprazole compositions and methods for its transdermal delivery” (Aequus Pharmaceuticals Inc., priority 2010, dated 2017).

solubility in water: practically insoluble
SMILES: O=C1CCc2ccc(OCCCCN3CCN(c4cccc(Cl)c4Cl)CC3)cc2N1 [ARPZ, Aripiprazole]
